Data from PubChem BioAssay (NCI).
Values joined by “and” are separate entries in the source; they are usually repeats but may differ in a detail not shown here. Equal values may be shown once.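 Method: 48-hour compound exposure of cells in 96-well plates, five concentrations, linear interpolation of endpoints. The concentration for 50% growth inhibition is given as GI50. The concentration for full growth arrest is given as TGI.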

Experiments:
Assay in all cases: NCI tumour cell line growth inhibition, 48 h
COLO 205 colon = test system: COLO 205 colon
HCC-2998 colon = test system: HCC-2998 colon
HT29 colon = test system: HT29 colon
SNB-19 CNS = test system: SNB-19 CNS
UO-31 renal = test system: UO-31 renal
PC-3 prostate = test system: PC-3 prostate
OVCAR-8 ovarian = test system: OVCAR-8 ovarian
HOP-62 NSCLC = test system: HOP-62 NSCLC
SF-295 CNS = test system: SF-295 CNS
SN12C renal = test system: SN12C renal

| SMILES | GI50 (COLO 205 colon) [µM] | TGI (COLO 205 colon) | GI50 (HCC-2998 colon) | TGI (HCC-2998 colon) | GI50 (HT29 colon) | TGI (HT29 colon) | GI50 (SNB-19 CNS) | TGI (SNB-19 CNS) | GI50 (UO-31 renal) | TGI (UO-31 renal) | GI50 (PC-3 prostate) | TGI (PC-3 prostate) | GI50 (OVCAR-8 ovarian) | TGI (OVCAR-8 ovarian) | GI50 (HOP-62 NSCLC) [µM] | TGI (HOP-62 NSCLC) | GI50 (SF-295 CNS) [µM] | TGI (SF-295 CNS) | GI50 (SN12C renal) | TGI (SN12C renal) |
| --- | --- | --- | --- | --- | --- | --- | --- | --- | --- | --- | --- | --- | --- | --- | --- | --- | --- | --- | --- | --- |
| O=C1OCC2=C1C(c1cccc(Cl)c1)c1cc3c(cc1N2CCO)CCC3 (stereo not drawn) | 0.0401 | 0.309 µM | 0.0922 µM | 2.93 µM | 0.0313 µM | 0.095 µM | 0.0644 µM | 17.3 µM | 0.0515 µM | 14.2 µM | 0.0398 µM | 11.8 µM | 0.0577 µM | 2.98 µM | 0.0478 | 14.4 µM | 0.0301 | 11.9 µM | 0.0759 µM | 11.9 µM |
| CCC(C)C1NC(=O)C(NC(=O)C(CC(C)C)N(C)C(=O)[C@@H]2CC(O)CN2C(=O)[C@H](C)O)C(C)OC(=O)[C@H](Cc2ccc(OC)cc2)N(C)C(=O)[C@@H]2CCCN2C(=O)[C@H](CC(C)C)NC(=O)C(C)C(=O)[C@H](C(C)C)OC(=O)CC1O (stereo partly drawn) | 0.0163 | 0.273 µM and 1.69 µM | < 0.01 µM | 0.637 µM and 0.399 µM | 0.0169 µM | 2.23 µM and 1.09 µM | < 0.01 µM | 3.39 µM and 0.346 µM | 0.581 µM | 5.65 µM | 0.0603 µM | 1.83 µM and 0.416 µM | 0.107 µM | 4.38 µM and 2.62 µM | 0.028 | 1.4 µM and 0.394 µM | 0.0268 | 2.05 µM and 0.388 µM | 0.0572 µM | 0.806 µM and 3.2 µM |
| Cc1c(Cl)c(C)c(Cl)c(O)c1Cl | – | > 100 µM | – | 50.6 µM | – | > 100 µM | – | > 100 µM | – | 42.6 µM | – | 63.9 µM | – | > 100 µM | – | > 100 µM | – | > 100 µM | – | > 100 µM |
| CC[C@@]1(O)C(=O)OCc2c1cc1n(c2=O)Cc2c-1nc1cc(F)c(C)c3c1c2[C@@H](NC(=O)CO)CC3 | 0.127 | 4.16 µM | 0.163 µM | 3.51 µM | 0.0512 µM | – | < 0.01 µM | 2.53 µM | 0.019 µM | 0.485 µM | 0.0985 µM | > 100 µM | 0.0132 µM | > 100 µM | < 0.01 | 2.14 µM | < 0.01 | 0.338 µM | < 0.01 µM | – |
| Cc1cc(-c2cc(OC(=O)c3ccccc3)ccc2Cl)cc2nnc(Nc3ccc(OCCN4CCCC4)cc3)nc12 | 1.68 | 3.6 µM | 1.81 µM | 3.37 µM | 1.61 µM | 3.04 µM | 1.86 µM | 3.37 µM | 1.19 µM | 2.44 µM | 1.16 µM | 2.47 µM | 1.7 µM | 3.67 µM | 1.55 | 3.27 µM | 1.45 | 2.79 µM | 1.49 µM | 3.1 µM |
| c1ccc(CC(Nc2cccnc2)c2ccccc2)cc1 (stereo not drawn) | – | 37 µM | – | 39.9 µM | – | 32.6 µM | – | > 100 µM | – | 45 µM | – | 76.9 µM | – | > 100 µM | – | 60.1 µM | – | 43.3 µM | – | 50.8 µM |
| Cc1cnc(-c2ccc(-c3ccc(NC(=O)Nc4c(F)cc(F)cc4F)cc3F)c3c2C(=O)NC3)[nH]1 | < 0.01 | 13.2 µM and 27.3 µM | 2.01 µM and 1.61 µM | > 100 µM and 11.6 µM | 0.431 µM and 0.359 µM | 2.66 µM and 2.45 µM | 2 µM and 2.51 µM | 14.4 µM and 15.5 µM | 0.594 µM and 1.46 µM | > 100 µM | 1.41 µM and 2.57 µM | 3.82 µM and 30.1 µM | 1.25 µM and 2.08 µM | 3.77 µM and 9.45 µM | – | 3.07 µM and 11 µM | – | 18.8 µM and 18.4 µM | 1.29 µM and 0.432 µM | 4.57 µM and 3.41 µM |
| CC(=O)N[C@@H](Cc1ccc(OP(=O)(O)O)cc1)C(=O)N[C@H]1CCC(=O)N2CCC[C@@H](C(=O)NC3CCc4ccccc43)N2C1=O (stereo partly drawn) | > 25 | > 25 µM | > 25 µM | > 25 µM | > 25 µM | > 25 µM | > 25 µM | > 25 µM | > 25 µM | > 25 µM | > 25 µM | > 25 µM | > 25 µM | > 25 µM | > 25 | > 25 µM | > 25 | > 25 µM | > 25 µM | > 25 µM |
| COC1C(=O)CCC2(CO2)C1(O)C1(C)OC1CC=C(C)C (stereo not drawn) | – | > 100 µM | – | 46.5 µM | – | > 100 µM | – | > 100 µM | – | > 100 µM | – | > 100 µM | – | > 100 µM | – | > 100 µM | – | > 100 µM | – | > 100 µM |
| COc1cc2c(cc1-c1coc3cc(O)ccc3c1=O)OCO2 | – | > 100 µM | – | > 100 µM | – | > 100 µM | – | 43.1 µM | – | 58.4 µM | – | > 100 µM | – | 40.1 µM | – | 33.3 µM | – | 38.9 µM | – | 67.2 µM |
| Nc1n[nH]c2ccc([C@@H]3Nc4ccc5cn[nH]c5c4[C@H]4C5CCC(C5)[C@@H]34)cc12 (stereo partly drawn) | 0.332 | 3.03 µM | 0.962 µM | > 50.2 µM | 0.382 µM | > 100 µM | 0.601 µM | > 100 µM | 1 µM | > 100 µM | 0.476 µM | > 100 µM | 0.606 µM | > 100 µM | 0.485 | > 70 µM | 0.277 | 13.2 µM | 0.747 µM | > 100 µM |
| CC(=O)ON=C1C=CC(=C(C#N)c2ccccc2)C=C1 | 6.02 | 19.3 µM | 11.7 µM | 32.2 µM | 3.03 µM | 12.9 µM | 11.5 µM | > 57.5 µM | 0.576 µM | 15.6 µM | 0.476 µM | 12.3 µM | 2.07 µM | 15 µM | 1.63 | 9.16 µM | 1.83 | 12.7 µM | 2.49 µM | 20.9 µM |
| CCCCCCCCCC[C@H](O)[C@H]1CC[C@@H]([C@@H](O)CC[C@H](O)[C@@H]2CCC(CCCCCCC[C@@H](O)CC3=C[C@H](C)OC3=O)O2)O1 (stereo partly drawn) | – | 4.38 µM and 6 µM | – | 19 µM | – | 3.5 µM | – | 4.71 µM and 19.6 µM | 2.59 µM | 2.13 µM and 10.9 µM | 4.66 µM | 3.44 µM and 17.2 µM | 4.09 µM | – | 4.55 | 3.28 µM and 19.4 µM | 1.22 | 15 µM | 8.18 µM | 8.23 µM and 30.6 µM |
| Cc1cc(C)c2c(c1)N(C)c1ncnc(-n3cnc4cc(C)ccc43)c1CC2C (stereo not drawn) | 3.32 | 10.5 µM | 4.05 µM | 61.8 µM | 3.13 µM | 10.5 µM | 4.22 µM | > 100 µM | 2.5 µM | 16.2 µM | 2.25 µM | 14.8 µM | 3.79 µM | 20 µM | 4.71 | 30 µM | 2.89 | 12 µM | 4.37 µM | 19.7 µM |
| COC(=O)Nc1nc2ccc(C(=O)c3ccc(F)cc3)cc2[nH]1 | 0.152 | 0.554 µM | 0.173 µM | – | 0.0785 µM | > 100 µM | 0.322 µM | 15.4 µM | 2.29 µM | > 100 µM | 0.226 µM | > 100 µM | 0.639 µM | > 31.6 µM | 0.682 | 29.1 µM | 0.094 | 0.966 µM | 0.841 µM | > 100 µM |
| CO/C(=C1/NC(=O)C(Cc2ccc(O)c(Br)c2)N(C)C(=O)C(C)NC(=O)CCC/C=C(\C)CCC(C)OC1=O)c1ccccc1 (stereo not drawn) | 0.0233 | > 100 µM | < 0.0154 µM | 0.311 µM | < 0.0135 µM | – | 0.031 µM | 1.96 µM | 0.0192 µM | 0.0458 µM | 0.036 µM | 0.595 µM | 0.0437 µM | 6.41 µM | 0.0369 | 1.18 µM | 0.0502 | 0.17 µM | 0.0695 µM | > 100 µM |
| Cn1c(=O)c(Oc2ccc(F)cc2F)cc2cnc(NCC(C)(C)O)nc21 | > 25 | > 25 µM | > 25 µM | > 25 µM | > 25 µM | > 25 µM | > 25 µM | > 25 µM | > 25 µM | > 25 µM | > 25 µM | > 25 µM | > 25 µM | > 25 µM | > 25 | > 25 µM | > 25 | > 25 µM | > 25 µM | > 25 µM |
| COc1cc2c(cc1OCCCN1CCN(C(=S)SCCC(C#N)(c3ccccc3)c3ccccc3)CC1)N=C[C@@H]1CCCN1C2=O | 1.3 | 2.78 µM | 1.51 µM | 2.94 µM | 0.944 µM | > 20.7 µM | 2.19 µM | – | 1.1 µM | 2.32 µM | 1.45 µM | > 100 µM | 1.31 µM | > 48.3 µM | 0.121 | 0.456 µM | 1.11 | 3.81 µM | 0.82 µM | 2.5 µM |
